Assay results taken from patent US20110214196A1, “DEVELOPMENT OF HERBICIDE-RESISTANT GRASS SPECIES” (University of Georgia Research Foundation, priority 2008, published 2011).

What was measured:
[1] = test system: original parental line, Mauna Kea (PT); assay: Whole plant greenhouse dose-response, Poast herbicide (Example 9); format: in vivo, seashore paspalum (Paspalum vaginatum)
Description: (§1) A second greenhouse experiment was initiated to evaluate SR plants regenerated from a second sethoxydim-resistant cell line, Line B, for sethoxidim resistance at the whole plant level. In the previous experiment (Example 8), minor injury occurred on Line A at higher concentrations of Segment™ sethoxydim herbicide. These injury symptoms were more indicative of surfactant injury rather than sethoxydim injury. […] Plants were transplanted to Cone-tainers™ measuring 4×14 cm and tapering to 1 cm (Stuewe and Sons Inc., Corvallis, Oreg.) containing a 1:1 mix of Fafard® 3B mix and sand and placed on benches under sodium lights in a greenhouse with a 16-h photoperiod maintained at 27/32° C. day/night for approximately two weeks prior to application of herbicide treatments.
(§2) Each of the four genotypes (Line A, Line B, PT and TCC) were treated with 0, 50, 100, 200, 400, 800, 1600, 3200 and 6400 g ai ha^−1 rates of sethoxydim using Poast™ herbicide (BASF Corp., Florham Park, N.J.). All herbicide rates were applied at a spray volume of 1871 ha^−1 in an experimental spray chamber, and after drying, the plants were returned to the greenhouse bench and maintained under the conditions described above. Visual estimates of crop injury were recorded at 16, 21, and 28 d after treatment (DAT) using a scale of 0 to 100, where 0 equals no injury and 100 equals complete death. The experiment was a four by nine factorial with four genotypes and nine herbicide rates. Treatments were arranged in a randomized complete block design. Four replications were used for all four genotypes. Data were first analyzed using a two-way analysis of variance (SAS, 2008) and subsequently analyzed within herbicide rate. Differences among genotype means at each herbicide rate were determined using Fisher's Least Significant Difference (LSD).

[2] = test system: sethoxydim-resistant Line B; assay: as above; format: in vivo, seashore paspalum (Paspalum vaginatum)
Description: as §1, §2

[3] = test system: Mauna Kea line regenerated from tissue culture (TCC); assay: as above; format: in vivo, seashore paspalum (Paspalum vaginatum); settings: for injury score: TCC
Description: as §1, §2

[4] = test system: sethoxydim-resistant Line A; assay: as above; format: in vivo, seashore paspalum (Paspalum vaginatum)
Description: as §1, §2

[5] = test system: Large crabgrass (Digitaria sanguinalis) F2; assay: Large crabgrass dose response study, F2 from self-pollinated surviving plants; format: in vivo
Procedure: Plants were grown from seed collected from a turfgrass sod farm near where sethoxydim had been continuously used for twelve years. Seeds were planted in 250 mL styrofoam cups with a potting mixture of pure sand in a glasshouse with supplemental lighting (300 uE/m2/s) and 30/25 temperature. Plants were watered once daily and fertilized once a week. Large crabgrass plants were treated with herbicides when 3-5 cm tall in a dose response study. Four herbicides (sethoxydim, fluazifop, clethodim, and pinoxaden) were applied at […]. Plant injury was observed 7 and 14 DAT. The experimental design consisted of a randomized complete block design with three replications. The experiment was replicated in time.
In response to all four herbicides, the plants initially illutrated typical ACCase symptomology, but recovered in 7-14 days after treatment (DAT). […] Seeds from self-pollinated surviving large crabgrass plants were collected and analyzed using the same dose response design as state before. […] The ED50 was approximately 10 times greater for the resistant (R) population than that for the wild type (S) population.

[6] = test system: original parent line, Mauna Kea (PT); assay: Whole plant greenhouse dose-response, Segment herbicide (Example 8); format: in vivo, seashore paspalum (Paspalum vaginatum)
Procedure: Sethoxydim-resistant plants regenerated from a sethoxydim-resistant cell line, Line A, were tested for resistance at the whole plant level in a dose-response experiment conducted in a greenhouse. In this experiment, Line A was compared to two herbicide-susceptible controls; the original parent line, Mauna Kea (PT); and a Mauna Kea line regenerated from tissue culture (TTC). Plants were transplanted to Cone-tainers™ measuring 4×14 cm and tapering to 1 cm (Stuewe and Sons Inc., Corvallis, Oreg.) containing a 1:1 mix of Fafard® 3B mix and sand and placed on benches under sodium lights in a greenhouse with a 16 hour photoperiod maintained at 27/32° C. day/night for two weeks prior to treatment applications. Each of the three genotypes, Line A, PT and TC were treated with 0, 50, 100, 200, 400, 800, 1600, and 3200 g ai ha^−1 rates of sethoxydim using Segment™ herbicide (BASF Corp., Florham Park, N.J.). All herbicide rates were applied at a spray volume of 1871 ha^−1 in an experimental spray chamber, and after drying, returned to the greenhouse bench and maintained under the conditions described above. Visual estimates of crop injury were recorded at 7, 14, 21, and 28 days after treatment (DAT) using a scale of 0 to 100, where 0 equals no injury and 100 equals complete death. At 42 days after treatment, the above ground portion of all plants was harvested, dried for 48 hours at a temperature of 50° C., and weighed to determine plant dry weight. Treatments were arranged in a randomized complete block design. Only two replications of TCC were possible due to limited plant materials; otherwise four replications were used for the other two genotypes (PT and Line A). Data were first analyzed using a two-way analysis of variance and subsequently analyzed within herbicide rate. Differences among genotype means at each herbicide rate were determined using Fisher's Least Significant Difference (LSD).

[7] = at rates of 400 g ai ha^−1, scale of 0 to 100
[8] = at rates of 1600 g ai ha^−1 or more
[9] = all rates up to 6400 g ai ha^−1

SMILES: CCC/C(=N\OCC)C1=C(O)CC(CC(C)SCC)CC1=O (stereo not shown) [sethoxydim, 2-[1-(ethoxyimino)-butyl]-5-[2-(ethylthio)propyl]-3-hydroxy-2-cylohexen-1-one]
- LD50 [1]: 720 g ai ha^−1
- injury score [1, 7]: ≥ 27
- injury score [1, 8]: ≥ 80%
- LD50 [2]: > 6400 g ai ha^−1
- maximum injury score observed [2, 9]: less than 20%
- LD50 ([3]; TC): 782 g ai ha^−1
- injury score [3, 7]: ≥ 27
- injury score [3, 8]: ≥ 80%
- LD50 [4]: > 6400 g ai ha^−1
- maximum injury score observed [4, 9]: less than 20%
- effective dose required to cause 50% injury (ED50) [5]: 179±4 g ai/ha
- LD50 [6]: 189 g ai ha^1
- Plant Injury ([6]; 50 g a.i. ha^−1, 7 DAT): 5.2a %
- Plant Injury ([6]; 50 g a.i. ha^−1, 14 DAT): 6.2b %
- Plant Injury ([6]; 50 g a.i. ha^−1, 21 DAT): 5.0a %
- Plant Injury ([6]; 50 g a.i. ha^−1, 28 DAT): 1.2a %
- Dry Weight ([6]; 50 g a.i. ha^−1, 42 DAT): 1.6a grams
- Plant Injury ([6]; 100 g a.i. ha^−1, 7 DAT): 7.9b %
- Plant Injury ([6]; 100 g a.i. ha^−1, 14 DAT): 22.5b %
- Plant Injury ([6]; 100 g a.i. ha^−1, 21 DAT): 13.8a %
- Plant Injury ([6]; 100 g a.i. ha^−1, 28 DAT): 6.2a %
- Dry Weight ([6]; 100 g a.i. ha^−1, 42 DAT): 1.3b grams
- Plant Injury ([6]; 200 g a.i. ha^−1, 7 DAT): 20.8b %
- Plant Injury ([6]; 200 g a.i. ha^−1, 14 DAT): 55.0b %
- Plant Injury ([6]; 200 g a.i. ha^−1, 21 DAT): 52.5b %
- Plant Injury ([6]; 200 g a.i. ha^−1, 28 DAT): 43.8b %
- Dry Weight ([6]; 200 g a.i. ha^−1, 42 DAT): 0.8b grams
- Plant Injury ([6]; 400 g a.i. ha^−1, 7 DAT): 30.8b %
- Plant Injury ([6]; 400 g a.i. ha^−1, 14 DAT): 67.5b %
- Plant Injury ([6]; 400 g a.i. ha^−1, 21 DAT): 67.5b %
- Plant Injury ([6]; 400 g a.i. ha^−1, 28 DAT): 72.5b %
- Dry Weight ([6]; 400 g a.i. ha^−1, 42 DAT): 0.2b grams
- Plant Injury ([6]; 800 g a.i. ha^−1, 7 DAT): 35.0b %
- Plant Injury ([6]; 800 g a.i. ha^−1, 14 DAT): 85.0b %
- Plant Injury ([6]; 800 g a.i. ha^−1, 21 DAT): 85.0b %
- Plant Injury ([6]; 800 g a.i. ha^−1, 28 DAT): 88.8b %
- Dry Weight ([6]; 800 g a.i. ha^−1, 42 DAT): 0.3b grams
- Plant Injury ([6]; 1600 g a.i. ha^−1, 7 DAT): 40.8b %
- Plant Injury ([6]; 1600 g a.i. ha^−1, 14 DAT): 90.0b %
- Plant Injury ([6]; 1600 g a.i. ha^−1, 21 DAT): 92.5b %
- Plant Injury ([6]; 1600 g a.i. ha^−1, 28 DAT): 92.5b %
- Dry Weight ([6]; 1600 g a.i. ha^−1, 42 DAT): 0.2b grams
- Plant Injury ([6]; 3200 g a.i. ha^−1, 7 DAT): 37.9b %
- Plant Injury ([6]; 3200 g a.i. ha^−1, 14 DAT): 100.0b %
- Plant Injury ([6]; 3200 g a.i. ha^−1, 21 DAT): 100.0b %
- Plant Injury ([6]; 3200 g a.i. ha^−1, 28 DAT): 100.0b %
- Dry Weight ([6]; 3200 g a.i. ha^−1, 42 DAT): 0.1b grams
- injury score ([6]; at rates equal to or greater than 800 g ai ha^−1): ≥ 80%
- injury score ([6]; at rates of 200 g ai ha^−1, scale of 0 to 100): ≥ 30
